Results: patent US10526309B2, “Pan-TAM inhibitors and Mer/Axl dual inhibitors” (The University of North Carolina at Chapel Hill, priority 2015, dated 2020)

Target: T1, Axl (Homo sapiens, UniProt P30530)
T1 sequence (P30530 26-894): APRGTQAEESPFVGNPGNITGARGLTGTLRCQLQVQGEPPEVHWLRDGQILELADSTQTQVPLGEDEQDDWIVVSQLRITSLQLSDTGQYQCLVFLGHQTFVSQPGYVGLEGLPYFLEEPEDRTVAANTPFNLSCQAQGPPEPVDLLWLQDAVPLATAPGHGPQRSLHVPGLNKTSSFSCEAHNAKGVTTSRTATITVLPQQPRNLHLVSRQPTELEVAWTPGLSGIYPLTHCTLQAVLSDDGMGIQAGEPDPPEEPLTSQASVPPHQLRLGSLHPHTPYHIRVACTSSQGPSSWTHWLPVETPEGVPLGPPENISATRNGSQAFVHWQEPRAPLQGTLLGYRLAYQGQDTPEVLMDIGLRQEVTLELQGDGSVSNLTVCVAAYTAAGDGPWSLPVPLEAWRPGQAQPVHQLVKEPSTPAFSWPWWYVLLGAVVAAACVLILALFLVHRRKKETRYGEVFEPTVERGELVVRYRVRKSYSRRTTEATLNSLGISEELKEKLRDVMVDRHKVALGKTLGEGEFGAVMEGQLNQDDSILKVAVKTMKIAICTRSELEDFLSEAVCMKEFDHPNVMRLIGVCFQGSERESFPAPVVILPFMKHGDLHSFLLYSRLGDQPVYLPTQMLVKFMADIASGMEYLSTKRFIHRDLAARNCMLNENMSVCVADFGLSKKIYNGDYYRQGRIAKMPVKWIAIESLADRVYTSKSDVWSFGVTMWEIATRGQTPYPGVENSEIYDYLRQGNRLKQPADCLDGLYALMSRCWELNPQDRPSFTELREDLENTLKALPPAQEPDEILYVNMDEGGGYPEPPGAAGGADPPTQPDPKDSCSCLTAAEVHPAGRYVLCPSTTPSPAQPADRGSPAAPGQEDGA
Experiment: Axl kinase inhibition IC50
Type: biochemical

IC50 (Example 6): 5.5 nM | IC50 (Table 1): < 10 nM
SMILES: O[C@H]1CC[C@H](Nc2nc(Nc3ccccc3)ncc2-c2ccc(CN3CCCC3)cn2)CC1 [UNC4198A]
